From DBAASP
Converted amounts (≈) assume the structure as drawn. One block for each compound: values may come before it.

Assays:
Test in all cases: ≥ marks a high value that may be exact or a test limit, other limits are often not marked, values filed in µg/mL are converted to µM
Pseudomonas sp. ADP = tested on: Pseudomonas sp. ADP
Bacillus thuringiensis = tested on: Bacillus thuringiensis
Bacillus subtilis = tested on: Bacillus subtilis
Staphylococcus aureus = tested on: Staphylococcus aureus
Escherichia coli = tested on: Escherichia coli
Arthrobacter sp. = tested on: Arthrobacter sp.
[1] = tested on: Bacillus subtilis DSM 357
Bacillus subtilis L170 = tested on: Bacillus subtilis L170
[2] = tested on: Escherichia coli DH5alpha
Escherichia coli LWF+ = tested on: Escherichia coli LWF+
[3] = tested on: Burkholderia cepacia J2540
Cupriavidus necator H16 = tested on: Cupriavidus necator H16
Escherichia coli JM109 = tested on: Escherichia coli JM109
[4] = tested on: Escherichia coli BL21(DE3)
[5] = tested on: Pseudomonas putida GPp104
[6] = tested on: Escherichia coli ATCC BAA-1025
[7] = tested on: Staphylococcus aureus ATCC 25904
[8] = tested on: Staphylococcus epidermidis DSM 1798
[9] = tested on: Staphylococcus aureus ATCC BAA-1717
[10] = tested on: Pseudomonas aeruginosa DSM 1117
[11] = tested on: Escherichia coli DSM 1103
[12] = tested on: Pseudomonas aeruginosa ATCC 47085
[13] = tested on: Listeria monocytogenes F4244
[14] = tested on: Listeria monocytogenes ATCC 19114
[15] = tested on: Klebsiella pneumoniae ATCC 27736
[16] = tested on: Listeria monocytogenes ATCC 19112
[17] = tested on: Staphylococcus aureus DSM 1104
[18] = tested on: Listeria monocytogenes ATCC 19111
[19] = tested on: Latilactobacillus sakei subsp. sakei JCM 1157T
[20] = tested on: Enterococcus faecalis JCM 5803T
[21] = tested on: Listeria innocua ATCC 33090T
[22] = tested on: Lactiplantibacillus plantarum ATCC 14917
[23] = tested on: Aspergillus niger CECT 2694
[24] = tested on: Fusarium oxysporum f. sp. lycopersici ATCC 201829
[25] = tested on: Penicillium expansum EPS 26
[26] = tested on: Rhizopus stolonifer CECT 2344

Compound: CC[C@H](C)[C@H](NC(=O)[C@H](CCCN=C(N)N)NC(=O)[C@H](CC(C)C)NC(=O)CN)C(=O)N[C@@H](CC(C)C)C(=O)N[C@@H](CC(C)C)C(=O)N[C@@H](CC(C)C)C(=O)N[C@@H](CCCCN)C(=O)N[C@H](C(N)=O)C(C)C [GLRILLLKV]
MIC (Pseudomonas sp. ADP): 15.4 µM (≈ 15.8 µg/mL)
MIC (Bacillus thuringiensis): 30.8 µM (≈ 31.5 µg/mL)
MIC (Bacillus subtilis): 12.4 µM (≈ 12.7 µg/mL)
MIC (Staphylococcus aureus): 3 µM (≈ 3.07 µg/mL)
MIC (Escherichia coli): 77.2 µM (≈ 79 µg/mL)
MIC (Arthrobacter sp.): ≥ 46.3 µM

Compound: CC(C)C[C@H](NC(=O)[C@H](C)NC(=O)[C@H](CC(C)C)NC(=O)[C@H](CCCCN)NC(=O)[C@H](Cc1c[nH]c2ccccc12)NC(=O)[C@H](C)NC(=O)[C@H](CCCCN)NC(=O)[C@H](CC(C)C)NC(=O)[C@H](C)NC(=O)[C@H](CC(C)C)NC(=O)[C@H](CCCCN)NC(=O)[C@H](CC(C)C)NC(=O)[C@H](C)NC(=O)[C@H](CC(C)C)NC(=O)[C@@H](N)CCCCN)C(=O)N[C@@H](CCCCN)C(=O)N[C@@H](C)C(=O)N[C@@H](C)C(N)=O [KLALKLALKAWKLALKAA]
MIC [1]: 1.6 µM (≈ 3.12 µg/mL)
MIC (Bacillus subtilis L170): 1.6 µM (≈ 3.12 µg/mL)
MIC [2]: 5.2 µM (≈ 10.1 µg/mL)
MIC (Escherichia coli LWF+): 10 µM (≈ 19.5 µg/mL)

Compound: CC[C@H](C)[C@H](NC(=O)[C@H](CCCCN)NC(=O)[C@H](CCCCN)NC(=O)[C@H](Cc1ccccc1)NC(=O)[C@H](CC(C)C)NC(=O)[C@H](CCCCN)NC(=O)[C@H](Cc1c[nH]c2ccccc12)NC(=O)[C@@H](N)CCCCN)C(=O)N[C@@H](Cc1ccccc1)C(=O)N[C@@H](CCCCN)C(=O)N[C@@H](CCCN=C(N)N)C(=O)N[C@H](C(=O)N[C@H](C(=O)N[C@@H](CCC(N)=O)C(=O)N[C@@H](CCCN=C(N)N)C(=O)N[C@H](C(=O)N[C@@H](CCCCN)C(=O)N[C@@H](CC(=O)O)C(=O)N[C@@H](Cc1ccccc1)C(=O)N[C@@H](CC(C)C)C(=O)N[C@@H](CCCN=C(N)N)C(=O)O)[C@@H](C)CC)C(C)C)[C@@H](C)CC [KWKLFKKIFKRIVQRIKDFLR]
MIC [3]: 11.2 µM (≈ 31.3 µg/mL)

Compound: CC[C@H](C)[C@H](NC(=O)[C@H](Cc1ccc(O)cc1)NC(=O)[C@@H](NC(=O)[C@@H]1CCCN1C(=O)[C@H](CCCN=C(N)N)NC(=O)[C@H](CC(N)=O)NC(=O)[C@H](CC(C)C)NC(=O)[C@@H](N)CCCN=C(N)N)C(C)C)C(=O)N1CCC[C@H]1C(=O)N[C@@H](CCC(N)=O)C(=O)N1CCC[C@H]1C(=O)N[C@@H](CCCN=C(N)N)C(=O)N1CCC[C@H]1C(=O)N1CCC[C@H]1C(=O)N[C@@H](Cc1cnc[nH]1)C(=O)N1CCC[C@H]1C(=O)N[C@@H](CCCN=C(N)N)C(=O)N[C@@H](CC(C)C)C(=O)O [RLNRPVYIPQPRPPHPRL]
MIC (Cupriavidus necator H16): ≥ 50 µM
MIC (Escherichia coli JM109): 10 µM (≈ 22.1 µg/mL)
MIC [4]: 1.25 µM (≈ 2.76 µg/mL)
MIC [5]: 12.5 µM (≈ 27.6 µg/mL)

More lines, main results first:

MIC [6]: 27.8 µM (≈ 62.5 µg/mL)
MIC [7]: ≥ 111 µM
MIC [8]: 13 µM (≈ 29.2 µg/mL)
MIC [9]: ≥ 445 µM
MIC [10]: ≥ 51 µM
MIC [11]: ≥ 51 µM
MIC [12]: ≥ 55.6 µM
MIC [13]: ≥ 128 µM
MIC [14]: ≥ 64 µM
MIC [15]: ≥ 445 µM
MIC [16]: ≥ 64 µM
MIC [17]: ≥ 51 µM
MIC [18]: ≥ 32 µM
Compound: CC[C@H](C)[C@H](NC(=O)[C@H](CCCCN)NC(=O)[C@@H](NC(=O)[C@H](CCC(N)=O)NC(=O)[C@@H](N)CCCNC(=N)N)[C@@H](C)CC)C(=O)N[C@@H](Cc1c[nH]c2ccccc12)C(=O)N[C@@H](Cc1ccccc1)C(=O)N[C@@H](CCC(N)=O)C(=O)N[C@@H](CC(N)=O)C(=O)N[C@@H](CCCNC(=N)N)C(=O)N[C@@H](CCCNC(=N)N)C(=O)N[C@@H](CCSC)C(=O)N[C@@H](CCCCN)C(=O)N[C@@H](Cc1c[nH]c2ccccc12)C(=O)N[C@@H](CCCCN)C(=O)N[C@@H](CCCCN)C(=O)O [RQIKIWFQNRRMKWKK]

MIC [19]: 0.3 µM (≈ 0.853 µg/mL)
MIC [20]: 0.3 µM (≈ 0.853 µg/mL)
MIC [21]: 0.59 µM (≈ 1.68 µg/mL)
Compound: CC[C@H](C)[C@H](NC(=O)CNC(=O)CNC(=O)[C@@H]1CCCN1C(=O)[C@@H](N)[C@@H](C)O)C(=O)N[C@@H](CC(=O)O)C(=O)N[C@@H](Cc1ccccc1)C(=O)N[C@H](C(=O)N[C@@H](CO)C(=O)NCC(=O)NCC(=O)N1CCC[C@H]1C(=O)N[C@@H](Cc1cnc[nH]1)C(=O)N[C@H](C(=O)N[C@@H](C)C(=O)N[C@@H](CCC(N)=O)C(=O)N[C@@H](CC(=O)O)C(=O)N[C@H](C(=O)N[C@@H](CC(C)C)C(=O)N[C@@H](CC(N)=O)C(=O)N[C@@H](C)C(=O)N[C@H](C(=O)N[C@@H](CCCCN)C(=O)N[C@@H](CC(N)=O)C(=O)N[C@@H](Cc1ccccc1)C(=O)N[C@@H](Cc1ccccc1)C(=O)N[C@@H](CCCCN)C(=O)O)[C@@H](C)CC)C(C)C)C(C)C)[C@@H](C)CC [TPGGIDFISGGPHVAQDVLNAIKNFFK]
MIC [22]: 1.2 µM (≈ 3.41 µg/mL)

MIC [23]: 17.3 µM (≈ 24.1 µg/mL)
MIC [24]: 1.73 µM (≈ 2.41 µg/mL)
MIC [25]: ≥ 35.4 µM
MIC [26]: ≥ 70.7 µM
Compound: CC[C@H](C)[C@H](NC(=O)[C@H](CCCCN)NC(=O)[C@H](CCCCN)NC(=O)[C@H](Cc1ccccc1)NC(=O)[C@H](CC(C)C)NC(=O)[C@H](CCCCN)NC(=O)[C@@H](N)Cc1ccc(O)cc1)C(=O)N[C@@H](CC(C)C)C(=O)N[C@@H](CCCCN)C(=O)N[C@H](C(=O)N[C@@H](CC(C)C)C(N)=O)C(C)C [YKLFKKILKVL]
